# Values quoted from earlier work as cited in patent US8784886B2, “Coating capsules with active pharmaceutical ingredients” (GlaxoSmithKline, LLC, priority 2006, dated 2014).
# Settings: gelatin capsules, stored and packaged under the prescribed conditions of temperature and humidity
smiles,measurement,value
"CC1=C(/C=C/C(C)=C/C=C/C(C)=C/CO)C(C)(C)CCC1 [USP vitamin A, vitamin A]",time without significant loss of potency of the encapsulated contents,≥ 3 years
